In PubChem BioAssay (NCI):
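In this assay, cells in 96-well plates receive the compound at five concentrations for 48 hours. Endpoints are linearly interpolated between the surrounding concentrations. GI50: concentration for 50% inhibition of growth. TGI denotes the concentration required for complete inhibition of growth.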

Assays:
Test in all cases: DTP human tumour cell line panel, 48 h
[1] = test system: OVCAR-8 ovarian
[2] = test system: K-562 leukemia
[3] = test system: HCC-2998 colon
[4] = test system: OVCAR-5 ovarian
[5] = test system: SK-OV-3 ovarian
[6] = test system: UACC-62 melanoma
[7] = test system: NCI-H226 lung
[8] = test system: SNB-19 CNS
[9] = test system: RXF 393 renal
[10] = test system: NCI-H23 lung

Row | SMILES | GI50 [1] | TGI [1] | GI50 [2] | TGI [2] | GI50 [3] | TGI [3] | GI50 [4] | TGI [4] | GI50 [5] | TGI [5] | GI50 [6] | TGI [6] | GI50 [7] | TGI [7] | GI50 [8] | TGI [8] | GI50 [9] | TGI [9] | GI50 [10] | TGI [10]
1 | CC(C)[C@@](O)(c1ccc2cc(OC(F)F)c(OC(F)F)cc2c1)c1cn[nH]n1 | 21.9 µM | 53.6 µM | 19.3 µM | 55.3 µM | 18.2 µM | 35.8 µM | 21.7 µM | 55.6 µM | 16.2 µM | 38.1 µM | 15.1 µM | 31 µM | 22.3 µM | 58.2 µM | 20.8 µM | 51.2 µM | 15.4 µM | 29.8 µM | 14.3 µM | 32.2 µM
2 | COC(=O)c1cc2oc(/C=C3/SC(=S)N(N)C3=O)cc2n1Cc1ccccc1 | 3.24 µM | 22.7 µM | 2.08 µM | > 21.7 µM | 3.89 µM | 19.1 µM | 4.65 µM | 20.7 µM | 4.25 µM | 20 µM | 10.6 µM | 36.1 µM | 13.5 µM | 26.8 µM | 5.79 µM | 35.2 µM | 2.01 µM | 12.2 µM | 4.46 µM | 21.2 µM
3 | CC(C)(C)CC(C)(C)c1ccc(O)c(Cc2ccc(Cl)cc2Cl)c1 | 1.61 µM | 2.96 µM | 2.09 µM | 3.83 µM | 1.79 µM | 3.25 µM | 1.68 µM | 3.08 µM | 1.5 µM | 2.82 µM | 1.7 µM | 3.07 µM | 1.53 µM | 2.87 µM | 1.82 µM | 3.21 µM | 1.16 µM | 2.41 µM | 1.53 µM | 2.89 µM
4 | Cn1cc(-c2nc(-c3c[nH]c4ncccc34)cs2)c2ccccc21 | 38.2 µM | > 100 µM | 4.48 µM | > 100 µM | 1.16 µM | > 100 µM | 0.762 µM | 73.9 µM | 65.3 µM | > 100 µM | 30.5 µM | > 100 µM | 14.2 µM | > 100 µM | 71.4 µM | > 100 µM | 17.9 µM | > 100 µM | 4.49 µM | > 100 µM
5 | COC(=O)[C@]12CC[C@@H](C)[C@H](C)[C@@H]1C1=CC[C@@H]3[C@@]4(C)C[C@@H](OC(=O)/C=C/c5ccccc5)[C@H](O)[C@@](C)(CO)[C@@H]4[C@H](O)C[C@@]3(C)[C@]1(C)CC2 | 3.2 µM | 11.5 µM | 2.45 µM | 6.05 µM | 2.13 µM | 4.88 µM | 2.17 µM | 6 µM | 3.91 µM | 14.3 µM | 2.83 µM | 11.4 µM | 2.56 µM | 9.15 µM | 3.51 µM | 16.6 µM | 1.74 µM | 3.84 µM | 2.8 µM | 10.2 µM
6 | Cn1cc(C2=C(c3cn(-c4ccccc4)c4ccccc34)C(=O)NC2=O)c2ccccc21 | 19.5 µM | > 25 µM | 8.75 µM | > 25 µM | 24.4 µM | > 25 µM | > 25 µM | > 25 µM | > 25 µM | > 25 µM | 16.3 µM | > 25 µM | > 25 µM | > 25 µM | > 25 µM | > 25 µM | 10.2 µM | > 25 µM | 18.8 µM | > 25 µM
7 | OCC[N+]12CCCN1CCC2 |  | > 100 µM |  | > 100 µM |  | > 100 µM |  | > 100 µM |  | > 100 µM |  | > 100 µM |  | > 100 µM |  | > 100 µM |  | > 100 µM |  | > 100 µM
8 | Cc1ccc(NC(=O)CC/C(CC(=O)C(C)(C)C)=N\NC(=O)C[n+]2ccccc2)cc1C |  | > 100 µM |  | > 100 µM |  | > 100 µM |  | > 100 µM |  | > 100 µM |  | > 100 µM |  | > 100 µM |  | > 100 µM |  | > 100 µM |  | > 100 µM
9 | CCOc1ccc(/C=C/c2cc(OC)c(OC)c(OC)c2)cc1 |  | > 100 µM |  | > 100 µM |  | 6.32 µM |  | > 100 µM |  | > 30.2 µM |  | > 100 µM |  | > 26.1 µM |  | > 83.6 µM | 0.448 µM | 5 µM |  | > 45.6 µM
10 | CN(C)CCCSc1ccccc1NC1=C(Cl)C(=O)C(Nc2ccccc2SCCCN(C)C)=C(Cl)C1=O | 2.03 µM | 3.99 µM | 2.08 µM | 5.92 µM | 2.11 µM | 5.49 µM | 1.78 µM | 3.29 µM | 12.5 µM | 25 µM | 1.81 µM | 3.51 µM | 2.21 µM | 4.32 µM | 3.42 µM | 11.4 µM | 1.92 µM | 3.35 µM | 1.75 µM | 3.74 µM
11 | CC1(C)N=C(N)N=C(N)N1c1ccc(OCCCNC(=O)Nc2cccc(S(=O)(=O)F)c2)c(Cl)c1 | 7.02 µM | > 100 µM | 0.598 µM | > 100 µM | 8.55 µM | > 100 µM | 3.98 µM | > 100 µM | 86.2 µM | > 100 µM | 1.43 µM | > 100 µM | 8.37 µM | > 100 µM | 1.22 µM | > 100 µM | 22.2 µM | > 100 µM | 3.65 µM | > 100 µM
12 | Cc1ccc2cccc(OC(=O)Nc3cccc(C(F)(F)F)c3)c2n1 | 3.5 µM | 14.9 µM | 3.63 µM | 17.8 µM | 5.29 µM | 18.5 µM | 6.44 µM | 32.1 µM | 4.37 µM | 16.2 µM | 3.05 µM | 11.2 µM | 3.61 µM | 14.1 µM | 2.89 µM | 12.5 µM | 5.3 µM | 21.9 µM | 2.78 µM | 10 µM
13 | COc1ccc(C(=NN=C(N)N)c2ccc(OC)cc2)cc1 | 5.29 µM | 21.1 µM | 3.7 µM | 15.4 µM | 3.53 µM | 14.4 µM | 5.1 µM | 21.6 µM | 2.78 µM | 10.6 µM | 3.54 µM | 14.1 µM | 4.37 µM | 18.3 µM | 3.72 µM | 16.4 µM | 1.81 µM | 4.82 µM | 3.87 µM | 17.8 µM
14 | C/C(=N\OCC(O)CNCCSCc1ccccc1)c1ccccc1Cl (stereo unspecified) |  | 32 µM |  | 92.9 µM |  | 40.9 µM |  | 37.9 µM |  | 35.4 µM |  | 34.4 µM |  | 35.4 µM |  | 39.7 µM |  | 37 µM |  | > 100 µM
15 | Oc1c(Cl)cc(Cl)cc1/C=N/Nc1nnc(N/N=C/c2cc(Cl)cc(Cl)c2O)c2ccccc12 | 0.406 µM | > 100 µM | 0.372 µM | > 100 µM | 0.469 µM | > 100 µM | 0.957 µM | > 100 µM | 0.563 µM | > 81.7 µM | 0.318 µM | 1.71 µM | 0.402 µM | 3.04 µM | 0.505 µM | > 100 µM | 0.278 µM | 0.798 µM | 0.406 µM | > 100 µM
16 | N#CCC(=O)N/N=C1/C(=O)N(c2cc(Cl)ccc2Cl)C(=O)C(=O)C1c1nc2ccccc2s1 (stereo unspecified) |  | > 100 µM |  | > 100 µM |  | > 100 µM |  | > 100 µM |  | > 100 µM |  | 93.2 µM |  | > 100 µM |  | > 100 µM |  | 28.5 µM |  | > 100 µM
